Results: US20100226987A1, “TARGETING CONJUGATES COMPRISING ACTIVE AGENTS ENCAPSULATED IN CYCLODEXTRIN-CONTAINING POLYMERS” (CAPSUTECH LTD., priority 2007, published 2010)

Test system: human nasopharyngeal KB cancer cells, which overexpress the folate receptor (FR)
Experiment: In vitro binding of RhB-encapsulating conjugates to KB cells (fluorescence counting and fluorescence microscopy)
Format: cell-based
Conditions: control = mixture of non-encapsulated RhB, free CD derivative, PEG and FA, FIGS. 1A-1B
Description: Cell culture. KB cells (ATCC CCL-17) were obtained from ATCC and grown on Minimum essential medium (Eagle) with 2 mM L-glutamine; 0.1 mM non-essential amino acids; 0.2 Earle's BSS adjusted to contain 1.5 g/l sodium bicarbonate; and 1.0 mM sodium pyruvate, 90%; heat inactivated fetal bovine serum, 10%. Cells were subcultured according to the ATCC recommended protocol. After 3 cycles of splitting at 85% confluence, 2,000 to 50,000 cells were seeded on transparent 96 well plate. Following 24 hours it was decided that optimal conditions would be seeding 35,000 cells per well for assay to be carried out in the following day. […]
KB cancer cells were cultured as described in Materials and Methods, and seeded on both Black and transparent 96 well plates for fluorescence counting and fluorescent microscopy. […] The medium was then washed 3 times with PBS 1 X, and fluorescence associated with the cells in both plates was counted using Analyst HT (Ex 525 nm, Dc 560 nm, Em 595 nm). The net fluorescence was calculated by subtracting the averaged background fluorescence form the fluorescence of the conjugate-treated cells. The transparent plate was further analyzed by fluorescence microscopy.

Di-CD-Glu-PEG3350-FA-RhB [Conjugate 55]
fluorescence of treated cells higher relative to control: 780%
